Test results from paper PMC11428593 (Antibiotics, 2024).
In brackets after ≈: the same amount, converted by molar mass. Several values for one entry are separate records, joined by “and”; a condition that tells them apart may be missing. Identical values can stand only once. Entries after “also recorded” stand apart in the source; their conditions may differ. Like-named read-outs stand apart in the source and are kept apart here.

What was measured:
[1] = tested on: MRSA ATCC 33591; experiment: MIC by broth microdilution (CLSI); format: cell-based; conditions: Staphylococcus aureus, MHB, 37 °C, 16 h
Source text: (§1) To assess the impact of the nitrogen position in our newly synthesized anaephene derivates, we analyzed their antimicrobial activities against various S. aureus strains, including ATCC 25,923 and the two methicillin-resistant S. aureus (MRSA) strains ATCC 33,591 and ATCC BAA-44. […] We determined the minimum inhibitory concentrations (MIC) of each of our compounds against the different bacterial strains by broth microdilution following the CLSI guidelines. As expected, all five compounds tested were completely ineffective against the Gram-negative P. aeruginosa strain ATCC 27,853 (Table 1).
(§2) The MIC values of the alkyl pyridinol derivatives against the S. aureus strain ATCC 25923, MRSA strains ATCC 33591, ATCC BAA-44, and USA300LAC, as well as the P. aeruginosa strain ATCC 27853, were determined by following the CLSI guidelines for the broth microdilution antibiotic sensitivity testing protocol. In brief, the overnight cultures were diluted into Mueller Hinton Broth (MHB) to a final inoculum concentration of 5 × 10^5 CFU/mL (O.D600nm = 0.00001) and dispensed into a 96-well polystyrene plate (Alkali Scientific, Fort Lauderdale, FL, USA). Alkyl pyridine compounds were diluted into inoculated MHB to the indicated concentrations from stock solutions that would allow for DMSO concentrations below 5%, resulting in a total volume of 200 μL per well. The plates were subsequently incubated at 37 °C for 16 h at 300 rpm. The MIC values, which are defined as the lowest compound concentration that inhibited growth, were determined from three biological replicates.

[2] = tested on: MRSA ATCC BAA-44; experiment: MIC by broth microdilution (CLSI); format: cell-based; conditions: Staphylococcus aureus, MHB, 37 °C, 16 h
Source text: as §1, §2

[3] = tested on: S. aureus ATCC 25923; experiment: MIC by broth microdilution (CLSI); format: cell-based; conditions: Staphylococcus aureus, ATCC25923, MHB, 37 °C, 16 h
Source text: as §1, §2

[4] = tested on: USA300LAC cells; experiment: Propidium iodide uptake assay (membrane damage); format: cell-based, Staphylococcus aureus
Source text: The alkyl pyridinol derivates synthesized in this study are characterized by high lipophilicity. To determine whether and to what extent these compounds incorporate into and disrupt the phospholipid bilayer of the S. aureus cell envelope, we performed a propidium iodide (PI) uptake assay. Given the membrane-impermeable nature of PI, the fluorophore can be used to assess membrane disruption in cells by measuring its non-specific interaction with DNA, which leads to enhanced fluorescence. […] The extent of membrane damage caused by JC-01-074 occurred in a dose-dependent manner.
Figure 4 JC-01-074 causes significant membrane damage in S. aureus. Membrane damage was evaluated via propidium iodide (PI) staining. […] Treatment of USA300LAC with 2.5% DMSO, 4 µg/mL vancomycin, and 0.25% SDS were included as negative and positive controls, respectively. Cells were collected, washed, resuspended in PBS, and stained with 1 µM PI. PI fluorescence was measured (exc./em. wavelengths: 535/615 nm) and normalized to OD600nm. One-way ANOVA, Dunnett’s multiple-comparison test (* p < 0.05, **** p < 0.0001); (n = 3, ±S.D.).
The plasma membrane integrity was determined using the Propidium Iodide Uptake assay, as previously described. Briefly, the overnight cultures of USA300LAC were diluted into fresh TSB media, grown to an early log phase at 37 °C and 300 rpm, and treated with either DMSO, an alkyl pyridinol derivate, vancomycin, or SDS at the indicated concentrations for 1 h. Following two washing steps, the cells were then resuspended in phosphate-buffered saline (PBS), pH = 7.4, and subsequently stained with 1 µM propidium iodide (PI). The PI fluorescence intensity was determined at an excitation wavelength of 535 nm and an emission wavelength of 615 nm.

[5] = tested on: S. aureus/MRSA strains; experiment: MIC by broth microdilution, S. aureus/MRSA strains; format: cell-based, Staphylococcus aureus; conditions: S. aureus/MRSA strains tested, strain not singled out
Source text: as §1, §2

[6] = tested on: MRSA USA300LAC; experiment: Minimal bactericidal concentration (MBC); format: cell-based, Staphylococcus aureus; conditions: for MBC: Staphylococcus aureus, MRSA USA300LAC, concentration at which no CFUs were observed; for bactericidal or bacteriostatic effect: USA300LAC, in words
Experimental: In brief, 10 µL of each culture was serially diluted and plated onto prewarmed LB agar and incubated overnight at 37 °C under static conditions to observe the colony-forming units (CFUs). The concentration at which no CFUs were observed was recorded as the MBC.

[7] = tested on: 3T3 mouse embryonic fibroblast cells; experiment: MTT cytotoxicity assay; format: cell-based; conditions: 3T3 cells; for IC50: Mus musculus, NIH3T3, 24 h
Experimental: To gauge the potential for toxicity of the new alkyl pyridinol derivates, we tested their cytotoxicity by examining the metabolic activity of 3T3 mouse embryonic fibroblast cells using the tetrazolium dye 3-(4,5-dimethylthiazol-2-yl)-2,5-diphenyltetrazolium bromide (MTT), as has been done before. The dye is reduced by NAD(P)H-dependent cellular oxidoreductases, resulting in the formation of the insoluble formazan with its purple color, which can be quantified. 3T3 cells were treated with different concentrations of the alkyl pyridinol compounds for 24 h, and the absorbance of the MTT-treated cell culture supernatant was measured at 540 nm. Absorbances were plotted against concentrations of the compound added (Supplementary Figure S2), and IC50, the concentration of a drug required for 50% metabolic inhibition, was calculated for each compound. […] However, the concentrations at which these compounds compromise 3T3 mouse embryonic fibroblast cells are well above their reported MICs (Table 2).
3T3 cells (male mouse embryonic fibroblast Flp-In cells, Thermo Fisher, Waltham, MA, USA) were cultured in D-MEM (Corning, Corning, NY, USA) supplemented with 10% Fetal Clone III (Cytiva Hyclone, Bengaluru, India) and L-Glutamine (Alfa Aesar, Haverhill, MA, USA) at 37 °C and 5% CO2. To determine the compound’s toxicity, 3T3 cells were seeded at a density of 10,000 cells/well into 96-well plates (Fisherbrand, Waltham, MA, USA) and cultured as described above. After 16 h, the culture medium was extracted and replaced by supplemented D-MEM without phenol red (Corning, Glendale, AZ, USA) containing individual compounds in the indicated concentrations. Furthermore, 1% sodium dodecyl sulfate (SDS) and 2% dimethyl sulfoxide (DMSO), equivalent to the volume of the DMSO in the highest compound concentration, were used as the cell death and vehicle control, respectively. Moreover, 16 h after compound treatment, the culture medium was extracted again and replaced by fresh supplemented D-MEM without phenol red. Subsequently, 10 µL of 5 mg/mL MTT reagent (Alfa Aesar, Haverhill, MA, USA), dissolved in DMSO, was added to each well, and the cells were incubated for 2 h at 37 °C and 5% CO2. Next, 85 µL of the culture supernatant was removed from each well, mixed with 50 µL of DMSO, and incubated in an optical grade 96-well plate (Fisherbrand, Waltham, MA, USA) in a shaking incubator at 37 °C and 250 rpm. The absorbance of the MTT-treated cell culture supernatant was measured at 540 nm in an ELx808 plate reader (Biotek, Winooski, VT, USA).

[8] = Staphylococcus aureus, MRSA, read-out: MIC
[9] = 24 hours, one value per biological replicate, read-out: IC50 of single biological replicates (Figure S2)
[10] = 24 h treatment, mean ± S.D., read-out: IC50

SMILES	MIC [1] [µg/mL]	MIC [2] [µg/mL]	MIC [3] [µg/mL]	PI fluorescence compared to DMSO-treated control ([4]; 1 h treatment at MIC ([…] µg/mL))	MIC [5, 8] [µg/mL]	MBC [6] [µg/mL]	bactericidal or bacteriostatic effect [6]	IC50 of single biological replicates (Figure S2) ([7]; 24 hours, one value per biological replicate, listed as JC-01-74)	IC50 [7, 9] [µg/mL]	IC50 [7, 10] [µM]	changes in PI intensity ([4]; up to 2× MIC, 1 h exposure)	MIC [5] [µg/mL]	IC50 of single biological replicates (Figure S2) ([7]; 24 hours, one value per biological replicate, listed as JC-01-72)
CCCCCCCCCC#Cc1cccc(O)n1 [JC-01-074]	16 (≈ 65.2 µM)	16 (≈ 65.2 µM)	16 (≈ 65.2 µM)	about five-fold higher PI fluorescence	16 (≈ 65.2 µM)	16 (≈ 65.2 µM)	bactericidal	27.1 µg/ml and 26.7 µg/ml	22.9	104 ± 9.4	–	–	–
CCCCCCCCCC#Cc1cncc(O)c1 [JC-01-072]	4 (≈ 16.3 µM)	4 (≈ 16.3 µM)	4 (≈ 16.3 µM)	–	4 (≈ 16.3 µM)	> 128	bacteriostatic; also recorded: no significant killing	–	47.1	153 ± 33.8	minimal changes	4 to 8	41.1 µg/ml and 27.6 µg/ml and 35 µg/ml
